# Data from patent publication US20240393319A1, “FLUORESCENT SENSORS AND METHODS OF MAKING AND USING” (Howard Hughes Medical Institute, priority 2023, published 2024).
# “Also recorded” adds a separate entry of the source.
# Legend:
# [1] = test system: LMTK- cells (parental fibroblast cell line); assay: Green:red fluorescence (ATP) on treatment; format: cell-based, mouse; conditions: 10 mM 2dOG replacing glucose
# Description: (§1) Rho° and the parental LMTK-cells were maintained in T-75 flasks with DMEM+10% FBS+1 mM pyruvate+5 μM uridine. Two days prior to transfection, they were split into a 24-well plate (half Rho°, half LMTK) at 0.6 and 0.1 million cells per well, respectively. Cells were transfected with iATPSnFR2.HaloTag variants by lipofectamine (0.5 μg DNA+2 μL lipofectamine 2000 per well) for 4-6 hours in DMEM lacking FBS or antibiotics. Transfection media was replaced with fresh DMEM+10% FBS+penicillin/streptomycin overnight. Cells were labeled with JFX650 HaloTag ligand by adding the fluorophore to 100 nM for an hour. Cells were washed with Mammalian Cell Imaging Buffer and imaged in a Cytation 5 imaging reader (BioTek) over the course of about 2 hours. After about 20 minutes of imaging to establish a baseline fluorescence, the culture plate was removed from the instrument and buffer was replaced with the query buffer. The equilibration buffer contained 10 mM glucose, and the query buffers contained 10 mM 2dOG.
# (§2) Images were background subtracted and aligned for movement artefacts with the Gen5 software package that controls the Cytation 5 instrument. Images were assembled as TIF stacks and imported into ImageJ. […] Those ROIs were used to determine the ratio of green to red fluorescence for each well. […]
# Rho° (ρ^0) cells = assay: Green:red fluorescence (ATP) on treatment; format: cell-based, mouse; conditions: 10 mM 2dOG replacing glucose
# Description: as §1, §2
# [2] = target: T1, iATPSnFR2.S29W.A95K.HaloTag-JFX650 (L1-VLVG, L2-ICV); cpSFGFP inserted in epsilon subunit of Bacillus subtilis PS3 F0-F1 ATPase; mutations A95K, S29W; SEQ ID NO: (Bacillus sp., UniProt P07678, A95K/DELINS96-108[…]/F67N/L78Y/N74K/S29W/V42K); assay: ATP/nucleotide titration, binding curve fits; conditions: stopped flow
# T1 construct: polyhistidine tag (bacterial expression vector); made in house; host or cells: E. coli BL21 (DE3) pLysS
# From the text: (§3) (1A) Artistic rendering of iATPSnFR2.HaloTag made with PyMol. The N-terminal fragment (residues 1-109) of the epsilon subunit of ATPase (orange, based on 2E5Y.PDB) is fused to cpSFGFP (green). The C-terminus of cpSFGFP is fused to the residual ATP-binding helix (residues 110-129) of the epsilon subunit (pink), which itself is fused to HaloTag (cyan). “Linkers” are shown as sticks in yellow. […] HaloTag fluorophore is shown as sticks in red. […] (1C-1E) Ratio of green (iATPSnFR2) to red (HaloTag-JFX650) fluorescence in fibroblasts transfected with three affinity variants of iATPSnFR2-HaloTag. […] Cells were incubated for 21 minutes in buffer containing 10 mM glucose, and then switched to buffer containing 10 mM 2-deoxyglucose. (1C) Rho° cells. (1D) Parental LMTK cell line. (1E) Parental cell line treated with both 2-deoxyglucose and oligomycin.
# (§4) ATP (black), CTP (cyan), GTP (grey), TTP (purple).
# (§5) Purified protein was mixed with 1.1 molar equivalents of JFX650 HaloTag Ligand and incubated at room temperature for 1 hour and then at 4° C. overnight. Excess HaloTag Ligand was removed by gel filtration on a PD-10 column (GE Life Sciences) and re-concentrated by ultrafiltration.
# [3] = target: T2, iATPSnFR2.A95K.HaloTag-JFX650 (L1-VLVG, L2-ICV); cpSFGFP inserted in epsilon subunit of Bacillus subtilis PS3 F0-F1 ATPase; mutation A95K; SEQ ID NO: 5, without (Bacillus sp., UniProt P07678, A95K/DELINS96-108[…]/F67N/L78Y/N74K/V42K); assay: ATP/nucleotide titration, binding curve fits; conditions: stopped flow
# T2 construct: polyhistidine tag (bacterial expression vector); made in house; host or cells: E. coli BL21 (DE3) pLysS
# From the text: as §3, §4, §5
# [4] = target: T3, iATPSnFR2 (L1-VLVG, L2-ICV, A95A, A119L; cpSFGFP inserted in epsilon subunit of Bacillus subtilis PS3 F0-F1 ATPase; SEQ ID NO: 1 / SEQ ID NO: 13) (Bacillus sp. PS3, UniProt P07678); assay: Fluorescence response to ATP; format: biochemical
# T3 construct: QD to VL at junction, L1-VLVG, L2-ICV; E. coli BL21(DE3)pLysS, Ni-NTA; HaloTag-JFX650 fusion possible
# Description: (grey) and 37° C. (black). Error bars are s.d. of three technical replicates. Fluorescence was measured in a Cytation 5 plate reader, which has relatively rapid heating.
# [5] = test system: iATPSnFR2.HaloTag-JFX650, three variants S29W.A95K, A95K and A95A.A119L; assay: Stopped-flow kinetics of ATP binding; format: biochemical, Bacillus subtilis PS3; conditions: ATP 123-10000 μM
# Description: Panels are the sensor with a C-terminal fusion to HaloTag-JFX650. […] Fluorescence data collected on an Applied Photophysics SX-20 stopped-flow apparatus with 490 nm LED excitation and 525 nm long pass filter. Data points are average of 5 technical replicates.
# Final concentration of protein was thus 0.1 μM.
# ChemoG-ATPSiR = conditions: read-out: affinity for ATP; cited from earlier work
# HaloTag-JF635 = assay: Titration of HaloTag-JF635 with ATP; format: biochemical; conditions: FIG. 8B
# MaLion = conditions: cited from earlier work
# [6] = test system: DJ-1 KD neurons, nerve terminals; assay: Presynaptic ATP in DJ-1 knock-down neurons; format: cell-based, Sprague-Dawley rats; conditions: TZ
# From the text: (§6) FIG. 11A-11H are experimental results showing that PARK7/DJ-1 is necessary for PGK1 driven hypometabolic resilience.
# (§7) An unbiased chemical screen recently led to the identification of an interaction between PGK1 and DJ-1, the product of the PARK7 gene, a genetic driver of familial PD. DJ-1 is a chaperone with strong structurally similarity to HSP31 but the precise clientele that it supports related to PD is poorly understood. To investigate whether DJ-1 has a functional impact on PGK1 function, we probed PGK1 rescue of hypometabolic synaptic function, but in absence of DJ-1. […] Furthermore, when glucose was substituted with a mixture of lactate and pyruvate, SV recycling kinetics in DJ-1 KD neurons was indistinguishable from control.
# [7] = test system: nerve terminals of primary hippocampal neurons; assay: Presynaptic ATP dynamics with synapto-iATPSnFR2-miRFP670nano3; format: cell-based, rat; conditions: 0.1 mM glucose
# From the text: For synapto-iATPSnFR2-miRFP670nano3 experiments, nerve terminals were selected in the miRFP670nano3 channels, blind to the ATPsnfr channel and then background subtracted. The traces are reported as iATPsnfr2 to miRFP670nano3 ratio, Fratio.
# [8] = test system: primary hippocampal neurons; assay: Synaptic endurance (vGlutI-pH) under repeated stimulation in 0.1 mM glucose; format: cell-based, rat
# DJ-1 KD neurons = assay: Synaptic endurance in DJ-1 knock-down neurons; format: cell-based, Sprague-Dawley rats; conditions: TZ
# From the text: as §6, §7
# [9] = test system: synaptic boutons of hippocampal neurons; assay: Syn-iATPSnFR2.HaloTag imaging of ATP depletion in boutons; format: cell-based, rat; conditions: 5 mM glucose + 10 μM KA + 0.3 μM TTX
# [10] = test system: axonal mitochondria of primary hippocampal neurons; assay: Mitochondrial ATP in primary hippocampal neurons (mito-iATPSnFR2.A95A.A119L.HaloTag); format: cell-based, Sprague-Dawley rats; conditions: 10 μM KA in 5 mM glucose
# Description: Primary neuronal cultures were prepared as previously described. Hippocampal CA1 to CA3 regions were dissected, dissociated, and plated onto poly-L-ornithine-coated coverslips. Plating media consisted of the minimal essential medium, 0.5% glucose, insulin (0.024 g/l), transferrin ([…]), GlutaMAX 1%, N-21 (2%), and fetal bovine serum (10%). After 1-3 days in vitro (DIV), cells were fed and maintained in media with the following modifications: cytosine β-D-arabinofuranoside (4 μM) and FBS 5%. Cultures were incubated at 37° C. in a 95% air/5% CO2 incubator. Calcium phosphate-mediated gene transfer was performed on DIV 6-8, and neurons were used for experiments on DIV 14-21.
# Coverslips were loaded onto a custom chamber, mounted on a […], 2.5 mM KCl, […], 25 mM HEPES, 2 mM CaCl2), 2 mM MgCl2, 50 μM DL-2-amino-5-phosphonovaleric acid (APV, AP5), 10 μM 6-cyano-7-nitroquinoxaline-2,3-dione (CNQX), adjusted to pH 7.4. […] Fluorescence was stimulated with OBIS 488 nm LX or OBIS 637 nm LS lasers (Coherent) passing through a laser speckle reducer (LSR 3005 at 12° diffusion angle, Optotune). […]
# Time series of imaging pairs (HaloTag and iATPSnFR2) were automated split into two independent image series using a custom-written Fiji routine to facilitate analysis. […] Synaptic boutons signals were analyzed using homemade script routines in Igor-pro v 6.3.7.2 (Wavemetric, Lake Oswego, OR, USA). […]
# [11] = test system: nerve terminals of hippocampal neurons; assay: Nerve terminal ATP in cultured neurons (iATPSnFR2.HaloTag-JFX650); format: cell-based, Sprague-Dawley rats
# T3 sequence (P07678 whole entry, stated change not applied, the tested form may be a part): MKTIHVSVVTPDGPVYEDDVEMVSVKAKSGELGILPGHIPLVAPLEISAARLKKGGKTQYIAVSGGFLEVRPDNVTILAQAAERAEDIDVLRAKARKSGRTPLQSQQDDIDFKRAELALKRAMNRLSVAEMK
# T2 sequence (P07678 other isoform, or with tags, fused parts or gaps V42K/F67N/N74K/L78Y): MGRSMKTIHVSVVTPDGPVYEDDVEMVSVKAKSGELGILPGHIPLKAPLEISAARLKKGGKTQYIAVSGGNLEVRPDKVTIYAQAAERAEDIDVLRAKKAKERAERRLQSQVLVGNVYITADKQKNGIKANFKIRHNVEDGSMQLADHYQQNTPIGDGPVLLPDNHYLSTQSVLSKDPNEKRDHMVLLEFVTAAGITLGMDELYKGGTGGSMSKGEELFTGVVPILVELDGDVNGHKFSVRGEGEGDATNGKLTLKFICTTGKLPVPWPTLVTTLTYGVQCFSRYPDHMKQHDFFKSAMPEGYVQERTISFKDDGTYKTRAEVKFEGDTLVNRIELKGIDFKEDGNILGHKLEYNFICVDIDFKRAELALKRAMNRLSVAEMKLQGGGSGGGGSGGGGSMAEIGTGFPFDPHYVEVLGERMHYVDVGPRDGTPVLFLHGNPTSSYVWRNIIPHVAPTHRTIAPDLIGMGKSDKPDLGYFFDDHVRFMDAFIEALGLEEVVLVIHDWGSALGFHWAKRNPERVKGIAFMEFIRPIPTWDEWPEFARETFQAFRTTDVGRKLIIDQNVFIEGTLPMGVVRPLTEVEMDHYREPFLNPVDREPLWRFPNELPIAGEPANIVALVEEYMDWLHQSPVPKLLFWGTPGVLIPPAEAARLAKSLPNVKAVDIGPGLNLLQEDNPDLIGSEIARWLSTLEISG
# T1 sequence (P07678 other isoform, or with tags, fused parts or gaps S29W/V42K/F67N/N74K/L78Y): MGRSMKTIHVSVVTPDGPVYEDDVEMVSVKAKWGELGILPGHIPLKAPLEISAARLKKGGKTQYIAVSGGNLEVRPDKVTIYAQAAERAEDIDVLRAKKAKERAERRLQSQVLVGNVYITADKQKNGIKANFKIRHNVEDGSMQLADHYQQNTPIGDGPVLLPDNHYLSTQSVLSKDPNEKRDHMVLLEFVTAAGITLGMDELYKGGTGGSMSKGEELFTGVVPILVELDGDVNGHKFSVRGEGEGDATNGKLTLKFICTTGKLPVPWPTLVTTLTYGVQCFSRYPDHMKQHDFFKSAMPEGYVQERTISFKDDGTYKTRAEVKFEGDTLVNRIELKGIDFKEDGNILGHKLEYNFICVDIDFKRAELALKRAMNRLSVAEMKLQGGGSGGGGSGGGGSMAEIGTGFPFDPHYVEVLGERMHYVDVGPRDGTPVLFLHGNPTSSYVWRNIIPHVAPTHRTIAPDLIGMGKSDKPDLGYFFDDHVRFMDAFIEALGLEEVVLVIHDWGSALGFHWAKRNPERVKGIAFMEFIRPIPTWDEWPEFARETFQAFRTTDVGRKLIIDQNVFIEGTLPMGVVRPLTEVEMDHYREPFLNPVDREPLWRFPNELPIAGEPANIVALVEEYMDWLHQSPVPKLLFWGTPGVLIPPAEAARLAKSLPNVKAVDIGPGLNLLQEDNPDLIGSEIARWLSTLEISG
compound,measurement,setting,value
"OC[C@H]1OC(O)C[C@@H](O)[C@@H]1O (stereo partly shown) [2dOG, 2-deoxyglucose]",change in green fluorescence (ATP),[1],decreased fluorescence only in the parental LMTK-cells expressing the weakest affinity variant (A95A.A119L)
same,change in green fluorescence (ATP),Rho° (ρ^0) cells,green fluorescence rapidly dropped; also recorded: significant decrease in fluorescence
Nc1ncnc2c1ncn2[C@@H]1O[C@H](COP(=O)(O)OP(=O)(O)OP(=O)(O)O)[C@@H](O)[C@H]1O [ATP],rate of ATP binding compared with A95A.A119L,[2],bind ATP faster than the A95A.A119L variant
same,rate of ATP binding compared with A95A.A119L,[3],bind ATP faster than the A95A.A119L variant
same,ΔF/F in response to saturating ATP,[4],~12
same,time to bind ATP,[5],within a one or two seconds
same,Kd,ChemoG-ATPSiR,~2000 µM
same,sensitivity to ATP,HaloTag-JF635,"sensitive to ATP, albeit with low ΔF/F"
same,increase in fluorescence upon saturation with ATP,MaLion,~5 fold
"COc1cc2nc(N3CCN(C(=O)C4CCCO4)CC3)nc(N)c2cc1OC (stereo not shown) [TZ, Terazosin]",acceleration of ATP production after burst of activity,[6],inability of TZ to accelerate ATP kinetics in absence of DJ-1
same,resting (pre-stimulus) nerve terminal ATP,[7],slightly elevated; also recorded: higher starting ATP
same,ATP depletion during stimulation,[7]; 600 APs at 10 Hz,blunted; also recorded: significantly smaller activity-induced drops in ATP
same,ATP production following activity,[7]; DJ-1 KD neurons,no acceleration of ATP production; also recorded: inability of TZ to accelerate ATP kinetics
same,synaptic endurance in low glucose,[8]; 1 μM,ineffective
same,synaptic endurance in low glucose,[8]; 10 μM,conferred significant resilience
same,synaptic endurance in low glucose,[8]; 100 μM,either ineffective or likely deleterious
same,synaptic endurance in low glucose,"[8]; 0.1 mM glucose, concentration not given",confers significant resilience
same,synaptic endurance in low glucose,[8]; absence of DJ-1 (DJ-1 KD),completely failed to restore synaptic endurance
same,synaptic endurance in low glucose,[8]; neurons with shRNA targeting PGK1,eliminated
same,recycling restoration: slowing of SV recycling after intense stimulation,DJ-1 KD neurons,could not be reversed
CC(C)[C@H]1CC[C@@]2(CO2)[C@H]2C(=O)OCC(C(=O)O)=C[C@H]12 [koningic acid],average green to red fluorescence ratio in boutons,[9],gradually declined over a 5-10 min period
same,change in mitochondrial ATP,[10],gradual decrease of [ATP]
same,decline of average green to red ratio (ATP) without activity,[11]; 10 μM KA with 0.3 μM TTX,gradually declined over a 5-10 min period
same,time for ATP depletion in single boutons after delay,[11]; 10 μM KA with 0.3 μM TTX,10 to 20 s
same,change in fluorescence (ATP) during action potential firing,"[11]; 10 μM KA, 5 mM glucose, 50 Hz 6 sec",even greater decrease in fluorescence that did not recover within the minute and a half observation window
